Source: patent publication US20250152547A1, “COMPOSITIONS FOR DELIVERY OF LADOSTIGIL” (priority 2019, published 2025)

Tests used:
[1] = Concentration of ladostigil in brain (cortex) of rats after oral or rectal administration (LC-MS/MS); type: in vivo; details: male, Wistar, rat, read-out: Concentration of ladostigil in brain (cortex), mean ± STD (coefficient of variation)
Method: Methods: Male Wister rats weighing 250-270g were used for these experiments. Ladostigil was administered by gavage at a dose of 5 mg/kg (volume 0.25-0.27ml). In other rats, the same dose of ladostigil was administered via a cannula gently inserted into the rectum and pushed forward to reach the colon. The rats were anesthetized with isofluorane and sacrificed by decapitation at 0, 15, 30, 60 or 120 min after ladostigil administration. The brain was removed, and the cortex carefully dissected and stored at-80° C. until further analysis. Blood was collected in heparinized Eppendorf tubes, centrifuged at 4° C., 20,800 g for 10 min and the plasma was stored at −80° C. until further analysis.
(§1) Samples were prepared for LC-MS analysis after precipitating the proteins in plasma and cortical extracts with methanol as described in Moradov et al. (2015). Briefly, rivastigmine 750 ng/ml (internal standard) was added to 50 μl of plasma or supernatant after brain homogenization and ladostigil was extracted with HPLC grade MeOH. 75 μl of double distilled water (DDW) was added to 150 μl of the supernatant to give a final ratio of DDW:MeOH 1:1. The samples were filtered through […] GHP membranes and injected into the LC-MS machine. LC-MS/MS analysis was also performed as described in Moradov et al. (2015).
(§2) Ladostigil and rivastigmine were detected by an AB Sciex (Framingham, MA, USA) Triple Quad™ 5500 mass spectrometer in positive ion mode by electrospray ionization (ESI) and a multiple reaction monitoring (MRM) mode of acquisition. Data acquisition and analysis were performed on a Dell Optiplex 960 computer with Analyst 1.6.2 software distributed by AB Sciex. Quantitative calibration (0-100 ng/ml) was performed before every batch of samples. The calibration curve (y=a+bx) was obtained by linear least-squares regression of the measured peak area (y) versus the concentration added to the biological matrix (x). The limit of quantification (LOQ) of ladostigil in plasma and cortex was 50 pg/ml.

[2] = Blood levels of ladostigil after oral administration, detection time and inter subject variability; type: in vivo, humans and rodent species
Method: Ladostigil is well absorbed from the gastro intestinal tract and can be detected in the blood within 15 minutes after oral administration in humans and rodent species. However, the inter subject variability in these blood levels at peak times after administration is very high with coefficients of variation of more than 100% irrespective of the dose administered. (Table 1). This is undesirable and could exacerbate any variability in the response to treatment by ladostigil of potential patients. The wide inter individual variation in blood levels may explain why the therapeutic effect of the drug in the clinical trial was not more pronounced.

[3] = Concentration of ladostigil in brain (cortex) of rats after oral or rectal administration (LC-MS/MS); type: in vivo; details: male, Wistar, rat, read-out: Concentration of ladostigil in brain (cortex), mean ± STD (coefficient of variation); remark: listed apart in the source
[4] = Concentration of ladostigil in plasma of human subjects after a single oral dose (LC/MS/MS); type: in vivo, humans; details: read-out: Concentration of ladostigil in plasma, mean ± STD (coefficient of variation)
[5] = Concentration of ladostigil in plasma of rats after oral or rectal administration (LC-MS/MS); type: in vivo; details: rat
Method: Methods: Male Wister rats weighing 250-270g were used for these experiments. […] In other rats, the same dose of ladostigil was administered via a cannula gently inserted into the rectum and pushed forward to reach the colon. […] The brain was removed, and the cortex carefully dissected and stored at-80° C. until further analysis. Blood was collected in heparinized Eppendorf tubes, centrifuged at 4° C., 20,800 g for 10 min and the plasma was stored at −80° C. until further analysis.
as §1, §2

[6] = oral administration (gavage) 5 mg/kg
[7] = other: rectal administration, rectal administration 5 mg/kg
[8] = normal healthy subjects aged 18-40, single oral dose 50 mg
[9] = normal healthy subjects aged 18-40, single oral dose 100 mg

For `C#CCN[C@@H]1CCc2ccc(OC(=O)N(C)CC)cc21` [ladostigil, 6-(N-ethyl, N-methyl, carbamyloxy)-N propargyl-1(R)-aminoindan, tartarate], the concentration at 15 min [1, 6] was 17.9 ng/g, the concentration at 30 min [1, 6] was 9.3 ng/g and the concentration at 60 min [1, 6] was 6.7 ng/g. The concentration at 120 min [1, 6] was 4.9 ng/g, the concentration at 15 min [1, 7] was 14.3 ng/g and the concentration at 30 min [1, 7] was 11.9 ng/g. The concentration at 60 min [1, 7] was 9.3 ng/g, the concentration at 120 min [1, 7] was 7.4 ng/g and the “Coefficient of variation of blood levels (inter subject variability)” value ([2]; at peak times after oral administration, irrespective of the dose) was “more than 100%”. For the same compound, the “Time after which ladostigil can be detected in the blood” value ([2]; oral administration, humans and rodent species) was ≤ 15 min, the concentration at 180 min [3, 6] was 2.9 ng/g and the concentration at 180 min [3, 7] was 2.8 ng/g. The concentration at 15 min [4, 8] was 0.00374 µg/mL, the concentration at 30 min [4, 8] was 0.018 µg/mL and the concentration at 60 min [4, 8] was 0.00829 µg/mL. For the same compound, the concentration at 120 min [4, 8] was 0.00288 µg/mL, the concentration at 15 min [4, 9] was 0.0093 µg/mL and the concentration at 30 min [4, 9] was 0.0348 µg/mL. For the same compound, the concentration at 60 min [4, 9] was 0.0976 µg/mL, the concentration at 120 min [4, 9] was 0.0444 µg/mL and the concentration at 180 min ([4]; normal healthy subjects aged 18-40, single oral dose 100 mg, 180 min) was 0.0153 µg/mL. For the same compound, the concentration at 15 min ([5]; male, Wistar, other: rectal administration, rats, rectal administration 5 mg/kg, 15 min, read-out: Concentration of ladostigil in plasma, mean ± STD (coefficient of variation)) was 0.0606 µg/mL, the concentration at 30 min ([5]; male, Wistar, other: rectal administration, rats, rectal administration 5 mg/kg, 30 min, read-out: Concentration of ladostigil in plasma, mean ± STD (coefficient of variation)) was 0.0472 µg/mL and the concentration at 60 min ([5]; male, Wistar, other: rectal administration, rats, rectal administration 5 mg/kg, 60 min, * significantly higher than after oral treatment p < 0.05, read-out: Concentration of ladostigil in plasma, mean ± STD (coefficient of variation)) was 0.0337 µg/mL. For the same compound, the concentration at 120 min ([5]; male, Wistar, other: rectal administration, rats, rectal administration 5 mg/kg, 120 min, * significantly higher than after oral treatment p < 0.05, read-out: Concentration of ladostigil in plasma, mean ± STD (coefficient of variation)) was 0.0141 µg/mL, the concentration at 180 min ([5]; male, Wistar, other: rectal administration, rats, rectal administration 5 mg/kg, 180 min, * significantly higher than after oral treatment p < 0.05, read-out: Concentration of ladostigil in plasma, mean ± STD (coefficient of variation)) was 0.0139 µg/mL and the concentration at 15 min ([5]; male, Wistar rats, single oral dose 5 mg/kg, 15 min (Table 1), read-out: Concentration of ladostigil in plasma, mean ± STD (coefficient of variation)) was 0.0537 µg/mL. For the same compound, the concentration at 30 min ([5]; male, Wistar rats, single oral dose 5 mg/kg, 30 min (Table 1), read-out: Concentration of ladostigil in plasma, mean ± STD (coefficient of variation)) was 0.0364 µg/mL, the concentration at 60 min ([5]; male, Wistar rats, single oral dose 5 mg/kg, 60 min (Table 1), read-out: Concentration of ladostigil in plasma, mean ± STD (coefficient of variation)) was 0.0083 µg/mL and the concentration at 120 min ([5]; male, Wistar rats, single oral dose 5 mg/kg, 120 min (Table 1), read-out: Concentration of ladostigil in plasma, mean ± STD (coefficient of variation)) was 0.0049 µg/mL. It also gave a concentration at 180 min ([5]; male, Wistar rats, single oral dose 5 mg/kg, 180 min (Table 1), read-out: Concentration of ladostigil in plasma, mean ± STD (coefficient of variation)) of 0.0024 µg/mL, a concentration at 15 min ([5]; Wistar rats, single oral dose 1 mg/kg, 15 min, read-out: Concentration of ladostigil in plasma, mean ± STD (coefficient of variation)) of 0.0187 µg/mL and a concentration at 30 min ([5]; Wistar rats, single oral dose 1 mg/kg, 30 min, read-out: Concentration of ladostigil in plasma, mean ± STD (coefficient of variation)) of 0.0123 µg/mL. For the same compound, the concentration at 60 min ([5]; Wistar rats, single oral dose 1 mg/kg, 60 min, read-out: Concentration of ladostigil in plasma, mean ± STD (coefficient of variation)) was 0.0067 µg/mL and the concentration at 120 min ([5]; Wistar rats, single oral dose 1 mg/kg, 120 min, read-out: Concentration of ladostigil in plasma, mean ± STD (coefficient of variation)) was 0.0016 µg/mL.
